Data: patent publication US12291508B2, “Hydrazide containing nuclear transport modulators and uses thereof” (Karyopharm Therapeutics Inc., priority 2011, dated 2025)
Structures can show the parent of a compound that is named as a salt.

Assays:
[1] = tested on: obese (fa/fa) Zucker rats; format: in vivo
Experimental: Male Zucker (fa/fa) rats and male Zucker lean rats (both from Charles River) at 10 weeks of age—a timepoint at which the Zucker fa/fa rats should show elevated food intake, body mass and elevated plasma lipid profile relative to their “lean” counterparts were singly housed in plastic bottomed cages and were given 14 days of habituation. During this period, animal body weight, food and water intakes were recorded daily. All animals were given ad-lib access to standard lab chow and water throughout the study. Once the 14 day baseline intake data were collected, the Zucker obese rats were assigned into treatment groups based on equivalent baseline data, i.e. all Zucker obese rats had equivalent daily food/water intakes and body weights. During this phase the rats also received two vehicle administrations as familiarisation to the dosing procedure. Immediately after the baseline phase, the treatment phase commenced. Test article and vehicle were administered at approximately 1 h prior to onset of the dark cycle. Dose scheduling varied according to group: 5× weekly dosing was Monday-Friday The study design was the following: Group A=Zucker lean male rats, vehicle treatment 5× week, oral, n=6, Group B=Zucker obese male rats, vehicle treatment 5× week, oral, n=6, Group C=Zucker obese male rats, I-4 2.5 mg/kg 5× week, oral, n=6.
Daily body weight, food and water intake were measured at approximately the same time of the day. At day −1 and day 7 of treatment phase.

[2] = biological target: T1, CRM1-mediated nuclear export (Homo sapiens, UniProt O14980); test: RevGFP assay, inhibition of nuclear export; format: cell-based; conditions: U2OS-RevGFP cells, about 1 hr incubation; read-out: Rev Export
T1 construct: endogenous in cells; host or cells: U2OS-RevGFP cells
T1 sequence (O14980 whole entry): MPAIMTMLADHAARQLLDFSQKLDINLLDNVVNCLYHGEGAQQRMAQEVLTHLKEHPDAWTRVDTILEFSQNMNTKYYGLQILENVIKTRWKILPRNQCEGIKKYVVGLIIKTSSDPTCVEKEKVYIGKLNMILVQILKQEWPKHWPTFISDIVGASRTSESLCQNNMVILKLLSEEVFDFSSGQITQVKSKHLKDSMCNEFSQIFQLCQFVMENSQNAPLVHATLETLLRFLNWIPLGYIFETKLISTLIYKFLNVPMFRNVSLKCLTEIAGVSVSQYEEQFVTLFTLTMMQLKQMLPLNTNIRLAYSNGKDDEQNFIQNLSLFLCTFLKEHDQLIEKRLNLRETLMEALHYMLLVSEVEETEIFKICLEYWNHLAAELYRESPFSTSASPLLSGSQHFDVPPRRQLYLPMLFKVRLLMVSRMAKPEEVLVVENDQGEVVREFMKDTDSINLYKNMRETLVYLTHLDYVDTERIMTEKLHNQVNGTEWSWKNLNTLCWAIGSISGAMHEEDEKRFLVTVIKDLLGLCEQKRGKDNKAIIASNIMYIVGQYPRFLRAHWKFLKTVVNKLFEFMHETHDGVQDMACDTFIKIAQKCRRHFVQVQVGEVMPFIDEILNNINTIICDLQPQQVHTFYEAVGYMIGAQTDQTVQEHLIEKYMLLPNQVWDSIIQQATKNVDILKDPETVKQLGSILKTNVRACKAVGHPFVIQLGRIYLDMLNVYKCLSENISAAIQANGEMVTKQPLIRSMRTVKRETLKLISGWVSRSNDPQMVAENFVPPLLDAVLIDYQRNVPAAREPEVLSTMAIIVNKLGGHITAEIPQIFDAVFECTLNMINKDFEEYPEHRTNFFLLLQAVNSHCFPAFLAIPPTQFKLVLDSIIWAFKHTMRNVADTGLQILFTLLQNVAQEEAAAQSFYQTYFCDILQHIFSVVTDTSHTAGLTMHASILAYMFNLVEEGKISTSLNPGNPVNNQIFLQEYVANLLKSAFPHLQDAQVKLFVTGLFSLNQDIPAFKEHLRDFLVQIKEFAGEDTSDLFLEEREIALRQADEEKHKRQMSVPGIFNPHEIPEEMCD
Experimental: The ability of exemplary compounds of the invention to inhibit CRM1-mediated nuclear export was assessed in a RevGFP assay. Rev is a protein from human immunodeficiency virus type 1 (HIV-1) and contains a nuclear export signal (NES) in its C-terminal domain and a nuclear localization signal (NLS) in its N-terminal domain. Nuclear export of Rev protein is dependent on the classical NES/CRM1 pathway (Neville et al. 1997).
In this assay, U2OS-RevGFP cells were seeded onto clear-bottomed, black, 384-well plates the day before the experiment. Compounds were serially diluted 1:2 in DMEM, starting from 40 μM in a separate, 384-well plate, and then transferred onto the cells. The cells were incubated with compound for about 1 hr before fixation with 3.7% formaldehyde and nuclei staining with Hoechst 33258. The amount of GFP in cell nuclei was measured and the IC50 of each compound was determined (Kau et al. 2003).

[3] = tested on: antibody-induced male BALB/c arthritic mice; test: Monoclonal-antibody induced arthritis (CAIA); format: in vivo; conditions: 4, 7.5, 15 mg/kg PO, Day 4, 6, 8, 10
Experimental: The health status of the animals was examined on arrival. Only animals in good health were acclimatized to laboratory conditions and were used in the study. Animals were provided ad libitum a commercial rodent diet and free access to drinking water, supplied to each cage via polyethylene bottles with stainless steel sipper tubes. Automatically controlled environmental conditions were set to maintain temperature at 20-24° C. with relative humidity (RH) of 30-70%, a 12:12 hour light:dark cycle and 10-30 air changes/hr in the study room Temperature, RH and light cycle were monitored daily by the control computer. Animals were given a unique animal identification number and on Day 0 of the study each animal received a tail vein injection of antibody cocktail (200 uL of 10 mg/mL). The antibody cocktail was supplied by MD Biosciences (Catalog #: CIA-MAB-50). On day 3, post the single mAb administration, all animals were subjected to LPS (200 uL of 0.5 mg/mL) administration by a single intraperitoneal (IP) injection. […]
Animals found in a moribund condition, animals with broken skin on an arthritic paw, or with a greater than a 20% decrease in body weight and animals showing severe pain and enduring signs of severe distress were humanely euthanized. Severe pain or distress was assessed on a case by case basis by experienced animal technicians. […]

HS578T cells = test: Anti-apoptosis and cell cycle proteins immunoblot, HS578T; format: cell-based; conditions: increasing concentrations, 24 hours
MDA-MB-468 cells = test: Long-term growth assay, MDA-MB-468; format: cell-based; conditions: MDA-MB-468, 1 μM, 10 days, crystal violet
Excerpt: At the end of the assay, media was removed from the cells and the remaining cells were stained with crystal violet.

MDA-MB-468 = test: Cell proliferation assay, MDA-MB-468; format: cell-based; conditions: Homo sapiens; MDA-MB-468, after 72 hours
Experimental: (§1) The cells were seeded at 5×10^3 to 1.5×10^4 cells (depending on cell type) in each well of a 96-well plate in 100 μL of fresh culture medium and adherent cells were allowed to attach overnight. The stock solutions of the compounds were diluted in cell culture medium to obtain eight concentrations of each drug, ranging from 1 nM to 30 μM and DMSO at less than 1% v/v was used as a negative control. The resulting drug solutions were transferred onto the cells. After 72 h of treatment, 20 μl of CellTiter 96® AQueous reagent was added into each well of the 96-well assay plates and the plate was incubated at 37° C. for 1-4 hours in a humidified, 5% CO2 atmosphere. Then the absorbance of each well was recorded at 490 nm using a 96-well plate reader. In most cases, the assay was performed in triplicate and the results were presented as half maximal inhibitory concentration (IC50).

DU4475 = test: Cell proliferation assay, DU4475; format: cell-based; conditions: Homo sapiens, DU-4475; DU4475, type Lu, 72 h
Experimental: as §1

DU4475 luminal BC cells = test: Apoptosis marker immunoblot, DU4475; format: cell-based; conditions: DU4475, 0 to 10 μM, 24 hours
Experimental: (§2) MDA-MB-468 TNBC, DU4475 and HS578T TNBC cells were exposed to concentrations of Compound 1-3 ranging from 0 to 10 μM for 24 hours. After 24 hours, whole protein cell extracts were run on immunoblots and were exposed to antibodies against the proteins indicated in FIGS. 2A-2C.

HS578T TNBC cells = test: Apoptosis marker immunoblot, HS578T; format: cell-based; conditions: 0 to 10 μM, 24 hours
Experimental: as §2

O=C(/C=C\n1cnc(-c2cc(C(F)(F)F)cc(C(F)(F)F)c2)n1)NNc1ccccn1 [Compound I-4, (Z)-3-(3-(3,5-bis(trifluoromethyl)phenyl)-1H-1,2,4-triazol-1-yl)-N′-(pyridin-2-yl)acrylohydrazide hydrochloride]
mean and cumulative food intake ([1]; 2.5 mg/kg 5× weekly, oral, obese (fa/fa) Zucker rats): reduced mean and cumulative food intake | body weight gain ([1]; 2.5 mg/kg 5× weekly, oral, compared to Zucker fa/fa controls): significantly reduced weight gain | body weight gain after washout ([1]; 2 day washout phase, compared to Zucker fa/fa controls): body weight gain still reduced | IC50 [2]: ≤ 1000 nM | mean body weight (rate of weight gain) ([3]; compared to vehicle or dexamethasone): increased the rate of weight gain | mean total paw clinical arthritic score ([3]; compared with vehicle): significantly decreased the total score

O=C(/C=C\n1cnc(-c2cc(C(F)(F)F)cc(C(F)(F)F)c2)n1)NNc1cnccn1 [Compound I-3, (Z)-3-(3-(3,5-bis(trifluoromethyl)phenyl)-1H-1,2,4-triazol-1-yl)-N′-(pyrazin-2-yl)acrylohydrazide]
MCL-1 protein level (HS578T cells): a reduction in MCL-1 is observed | long-term growth (MDA-MB-468 cells): inhibited the long-term growth | IC50 (MDA-MB-468): 10 nM | IC50 (DU4475): 13 nM | apoptosis (PARP, caspase 3, cleaved PARP, cleaved caspase 3) (DU4475 luminal BC cells): induces apoptosis | apoptosis (cleaved PARP, cleaved caspase 3) (HS578T TNBC cells): only a negligible increase in cleaved PARP and cleaved caspase 3
